From article PMC6979384, “Characterization of the plant homeodomain (PHD) reader family for their histone tail interactions” (Epigenetics & Chromatin, 2020)

Experiments:
Test in all cases: Histone peptide microarray
Assay type in all cases: binding, human
Settings in all cases: each array performed twice, total n = 4
RAG2 = test system: RAG2
How it was run: (§1)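 Readout is array binding signal, reported as the mean and standard deviation over four replicates. Each purified GST-fused PHD domain was incubated at 0.5 μM with a library of 293 modified histone peptides.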

PHF23 = test system: PHF23
How it was run: as §1

KDM5B (1) = test system: KDM5B (1)
How it was run: as §1

ING1 = test system: ING1
How it was run: as §1

BPTF (PB) = test system: BPTF (PB)
How it was run: as §1

MLL5 = test system: MLL5
How it was run: as §1

BAZ2B = test system: BAZ2B
How it was run: as §1

SP140L = test system: SP140L
How it was run: as §1

ING2 = test system: ING2
How it was run: as §1

KDM5A (1) = test system: KDM5A (1)
How it was run: as §1

PHF13 = test system: PHF13
How it was run: as §1

TAF3 = test system: TAF3
How it was run: as §1

TRIM66 (PB) = test system: TRIM66 (PB)
How it was run: as §1

PHF8 = test system: PHF8
How it was run: as §1

KDM7A = test system: KDM7A
How it was run: as §1

DIDO1 = test system: DIDO1
How it was run: as §1

KDM5A (3) = test system: KDM5A (3)
How it was run: as §1

DPF2 (PPC2W2) = test system: DPF2 (PPC2W2)
How it was run: as §1

ING5 = test system: ING5
How it was run: as §1

ING4 = test system: ING4
How it was run: as §1

PHF21A = test system: PHF21A
How it was run: as §1

CHD5 (PCC) = test system: CHD5 (PCC)
How it was run: as §1

KDM5B (3) = test system: KDM5B (3)
How it was run: as §1

PHF2 = test system: PHF2
How it was run: as §1

AIRE (PP) = test system: AIRE (PP)
How it was run: as §1

CHD4 (PPCC) = test system: CHD4 (PPCC)
How it was run: as §1

CHD5 (PPCC) = test system: CHD5 (PPCC)
How it was run: as §1

PHRF1 (RP) = test system: PHRF1 (RP)
How it was run: as §1

MORC3 (CW) = test system: MORC3 (CW)
How it was run: as §1

ING3 = test system: ING3
How it was run: as §1

KDM4C (TTP) = test system: KDM4C (TTP)
How it was run: as §1

With H3K18ac (1-32): H3 1-32 the “Array Heatmap value (peptide array signal)” value (“Array Heatmap value” for short) (RAG2; RAG2, sheet "Array Heatmap") was 0.2621, the “Array Heatmap value” value (PHF23; PHF23, sheet "Array Heatmap") was 0.5317 and the “Array Heatmap value” value (KDM5B (1); KDM5B (1), sheet "Array Heatmap") was 0.7307. The “Array Heatmap value” value (ING1; ING1, sheet "Array Heatmap") was 0.5268, the “Array Heatmap value” value (BPTF (PB); BPTF (PB), sheet "Array Heatmap") was 0.3434 and the “Array Heatmap value” value (MLL5; MLL5, sheet "Array Heatmap") was 0.5655. For the same substance, the “Array Heatmap value” value (BAZ2B; BAZ2B, sheet "Array Heatmap") was 0.4901, the “Array Heatmap value” value (SP140L; SP140L, sheet "Array Heatmap") was 0.3664 and the “Array Heatmap value” value (ING2; ING2, sheet "Array Heatmap") was 0.6127. For the same substance, the “Array Heatmap value” value (KDM5A (1); KDM5A (1), sheet "Array Heatmap") was 0.4813, the “Array Heatmap value” value (PHF13; PHF13, sheet "Array Heatmap") was 0.586 and the “Array Heatmap value” value (TAF3; TAF3, sheet "Array Heatmap") was 0.2816. The “Array Heatmap value” value (TRIM66 (PB); TRIM66 (PB), sheet "Array Heatmap") was 0.5982, the “Array Heatmap value” value (PHF8; PHF8, sheet "Array Heatmap") was 0.3597 and the “Array Heatmap value” value (KDM7A; KDM7A, sheet "Array Heatmap") was 0.3927. The “Array Heatmap value” value (DIDO1; DIDO1, sheet "Array Heatmap") was 0.6775, the “Array Heatmap value” value (KDM5A (3); KDM5A (3), sheet "Array Heatmap") was 0.5027 and the “Array Heatmap value” value (DPF2 (PPC2W2); DPF2 (PPC2W2), sheet "Array Heatmap") was 0.7444. For the same substance, the “Array Heatmap value” value (ING5; ING5, sheet "Array Heatmap") was 0.3576, the “Array Heatmap value” value (ING4; ING4, sheet "Array Heatmap") was 0.4589 and the “Array Heatmap value” value (PHF21A; PHF21A, sheet "Array Heatmap") was 0.434. For the same substance, the “Array Heatmap value” value (CHD5 (PCC); CHD5 (PCC), sheet "Array Heatmap") was 0.7075, the “Array Heatmap value” value (KDM5B (3); KDM5B (3), sheet "Array Heatmap") was 0.448 and the “Array Heatmap value” value (PHF2; PHF2, sheet "Array Heatmap") was 0.4084. For the same substance, the “Array Heatmap value” value (AIRE (PP); AIRE (PP), sheet "Array Heatmap") was 0.5458, the “Array Heatmap value” value (CHD4 (PPCC); CHD4 (PPCC), sheet "Array Heatmap") was 0.5307 and the “Array Heatmap value” value (CHD5 (PPCC); CHD5 (PPCC), sheet "Array Heatmap") was 0.5424. For the same substance, the “Array Heatmap value” value (PHRF1 (RP); PHRF1 (RP), sheet "Array Heatmap") was 0.6228, the “Array Heatmap value” value (MORC3 (CW); MORC3 (CW), sheet "Array Heatmap") was 0.4635 and the “Array Heatmap value” value (ING3; ING3, sheet "Array Heatmap") was 0.4519. The “Array Heatmap value” value (KDM4C (TTP); KDM4C (TTP), sheet "Array Heatmap") was 0.505.
With H3K18ac: H3 1-20 [Peptide H3K18ac] the “Array Heatmap signal (histone peptide microarray)” value (from here on “Array Heatmap signal”) (RAG2; GST-tagged RAG2, sheet Array Heatmap) was 0.2722, the “Array Heatmap signal” value (PHF23; GST-tagged PHF23, sheet Array Heatmap) was 0.5309 and the “Array Heatmap signal” value (KDM5B (1); GST-tagged KDM5B (1), sheet Array Heatmap) was 0.7147. For the same substance, the “Array Heatmap signal” value (ING1; GST-tagged ING1, sheet Array Heatmap) was 0.5131, the “Array Heatmap signal” value (BPTF (PB); GST-tagged BPTF (PB = PHD + Bromodomain), sheet Array Heatmap) was 0.3398 and the “Array Heatmap signal” value (MLL5; GST-tagged MLL5, sheet Array Heatmap) was 0.5221. The “Array Heatmap signal” value (BAZ2B; GST-tagged BAZ2B, sheet Array Heatmap) was 0.4617, the “Array Heatmap signal” value (SP140L; GST-tagged SP140L, sheet Array Heatmap) was 0.3771 and the “Array Heatmap signal” value (ING2; GST-tagged ING2, sheet Array Heatmap) was 0.5886. The “Array Heatmap signal” value (KDM5A (1); GST-tagged KDM5A (1), sheet Array Heatmap) was 0.495, the “Array Heatmap signal” value (PHF13; GST-tagged PHF13, sheet Array Heatmap) was 0.6049 and the “Array Heatmap signal” value (TAF3; GST-tagged TAF3, sheet Array Heatmap) was 0.3122. For the same substance, the “Array Heatmap signal” value (TRIM66 (PB); GST-tagged TRIM66 (PB = PHD + Bromodomain), sheet Array Heatmap) was 0.7719, the “Array Heatmap signal” value (PHF8; GST-tagged PHF8, sheet Array Heatmap) was 0.3469 and the “Array Heatmap signal” value (KDM7A; GST-tagged KDM7A, sheet Array Heatmap) was 0.36. For the same substance, the “Array Heatmap signal” value (DIDO1; GST-tagged DIDO1, sheet Array Heatmap) was 0.6541, the “Array Heatmap signal” value (KDM5A (3); GST-tagged KDM5A (3), sheet Array Heatmap) was 0.7024 and the “Array Heatmap signal” value (DPF2 (PPC2W2); GST-tagged DPF2 (PPC2W2 = Dual PHD + C2W2-type Zn-finger), sheet Array Heatmap) was 0.8135. The “Array Heatmap signal” value (ING5; GST-tagged ING5, sheet Array Heatmap) was 0.3604, the “Array Heatmap signal” value (ING4; GST-tagged ING4, sheet Array Heatmap) was 0.4378 and the “Array Heatmap signal” value (PHF21A; GST-tagged PHF21A, sheet Array Heatmap) was 0.4738. The “Array Heatmap signal” value (CHD5 (PCC); GST-tagged CHD5 (PCC = PHD + Dual Chromodomain), sheet Array Heatmap) was 0.8176, the “Array Heatmap signal” value (KDM5B (3); GST-tagged KDM5B (3), sheet Array Heatmap) was 0.5801 and the “Array Heatmap signal” value (PHF2; GST-tagged PHF2, sheet Array Heatmap) was 0.5028. For the same substance, the “Array Heatmap signal” value (AIRE (PP); GST-tagged AIRE (PP), sheet Array Heatmap) was 0.6319, the “Array Heatmap signal” value (CHD4 (PPCC); GST-tagged CHD4 (PPCC = Dual PHD + Dual Chromodomain), sheet Array Heatmap) was 0.5741 and the “Array Heatmap signal” value (CHD5 (PPCC); GST-tagged CHD5 (PPCC = Dual PHD + Dual Chromodomain), sheet Array Heatmap) was 0.5749. For the same substance, the “Array Heatmap signal” value (PHRF1 (RP); GST-tagged PHRF1 (RP), sheet Array Heatmap) was 0.9005, the “Array Heatmap signal” value (MORC3 (CW); GST-tagged MORC3 (CW = CW-type Zn-finger), sheet Array Heatmap) was 0.6663 and the “Array Heatmap signal” value (ING3; GST-tagged ING3, sheet Array Heatmap) was 0.4594. The “Array Heatmap signal” value (KDM4C (TTP); GST-tagged KDM4C (TTP = Tandem Tudor domain + PHD), sheet Array Heatmap) was 0.5068.
